Experimental data taken from PubChem BioAssay (NCI).
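GI50 = concentration required for 50% inhibition of growth. At the TGI there is no net growth.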

Legend:
Experiment in all cases: growth of human tumour cells (NCI), 384-well format
IGROV1 ovarian = test system: IGROV1 ovarian
KM12 colon = test system: KM12 colon
NCI/ADR-RES ovarian = test system: NCI/ADR-RES ovarian
OVCAR-3 ovarian = test system: OVCAR-3 ovarian
OVCAR-8 ovarian = test system: OVCAR-8 ovarian
M14 melanoma = test system: M14 melanoma
COLO 205 colon = test system: COLO 205 colon
SK-MEL-5 melanoma = test system: SK-MEL-5 melanoma
SK-OV-3 ovarian = test system: SK-OV-3 ovarian
HL-60(TB) leukemia = test system: HL-60(TB) leukemia
SR leukemia = test system: SR leukemia
NCI-H460 NSCLC = test system: NCI-H460 NSCLC
NCI-H226 lung = test system: NCI-H226 lung
MALME-3M melanoma = test system: MALME-3M melanoma
SN12C renal = test system: SN12C renal
SK-MEL-2 melanoma = test system: SK-MEL-2 melanoma
OVCAR-4 ovarian = test system: OVCAR-4 ovarian
SF-268 CNS = test system: SF-268 CNS
UO-31 renal = test system: UO-31 renal
786-0 renal = test system: 786-0 renal
NCI-H522 lung = test system: NCI-H522 lung
UACC-62 melanoma = test system: UACC-62 melanoma
UACC-257 melanoma = test system: UACC-257 melanoma
MDA-MB-435 melanoma = test system: MDA-MB-435 melanoma
SK-MEL-28 melanoma = test system: SK-MEL-28 melanoma
HOP-62 NSCLC = test system: HOP-62 NSCLC
NCI-H23 lung = test system: NCI-H23 lung
RPMI-8226 leukemia = test system: RPMI-8226 leukemia
HCC-2998 colon = test system: HCC-2998 colon
NCI-H322M lung = test system: NCI-H322M lung
CCRF-CEM leukemia = test system: CCRF-CEM leukemia
MOLT-4 leukemia = test system: MOLT-4 leukemia
LOX IMVI melanoma = test system: LOX IMVI melanoma
TK-10 renal = test system: TK-10 renal
SNB-19 CNS = test system: SNB-19 CNS
A498 renal = test system: A498 renal
SF-295 CNS = test system: SF-295 CNS
MDA-MB-468 breast = test system: MDA-MB-468 breast
SF-539 CNS = test system: SF-539 CNS
MDA-MB-231 breast = test system: MDA-MB-231 breast
HT29 colon = test system: HT29 colon
RXF 393 renal = test system: RXF 393 renal
BT-549 breast = test system: BT-549 breast
U251 glioblastoma = test system: U251 glioblastoma
HCT-15 colon = test system: HCT-15 colon
HOP-92 NSCLC = test system: HOP-92 NSCLC
OVCAR-5 ovarian = test system: OVCAR-5 ovarian
T-47D breast = test system: T-47D breast
HCT-116 colon = test system: HCT-116 colon
MCF7 breast = test system: MCF7 breast
PC-3 prostate = test system: PC-3 prostate
A549 NSCLC = test system: A549 NSCLC
DU-145 prostate = test system: DU-145 prostate
CAKI-1 renal = test system: CAKI-1 renal
ACHN renal = test system: ACHN renal

COc1ncnn2ccc(-c3cnc4nc(C)n(Cc5nnc(C(C)F)o5)c4c3)c12 (stereo unspecified)
GI50 (IGROV1 ovarian): 26.5 nM
TGI (IGROV1 ovarian): 135 nM
GI50 (KM12 colon): 24.8 nM
TGI (KM12 colon): 95.5 nM
GI50 (NCI/ADR-RES ovarian): 154 nM
TGI (NCI/ADR-RES ovarian): 415 nM
GI50 (OVCAR-3 ovarian): 17.2 nM
TGI (OVCAR-3 ovarian): 41.4 nM
GI50 (OVCAR-8 ovarian): 40.2 nM
TGI (OVCAR-8 ovarian): 256 nM
GI50 (M14 melanoma): 185 nM
TGI (M14 melanoma): 334 nM
GI50 (COLO 205 colon): 26.8 nM
TGI (COLO 205 colon): 67.5 nM
GI50 (SK-MEL-5 melanoma): 15.4 nM
TGI (SK-MEL-5 melanoma): 45 nM
GI50 (SK-OV-3 ovarian): 28.7 nM
TGI (SK-OV-3 ovarian): 132 nM
GI50 (HL-60(TB) leukemia): 51.5 nM
TGI (HL-60(TB) leukemia): 156 nM
GI50 (SR leukemia): 15.5 nM
TGI (SR leukemia): 29.4 nM
GI50 (NCI-H460 NSCLC): 42.6 nM
TGI (NCI-H460 NSCLC): 163 nM
GI50 (NCI-H226 lung): 117 nM
TGI (NCI-H226 lung): 283 nM
GI50 (MALME-3M melanoma): 95.6 nM
TGI (MALME-3M melanoma): 223 nM
GI50 (SN12C renal): 43.5 nM
TGI (SN12C renal): 215 nM
GI50 (SK-MEL-2 melanoma): 29.4 nM
TGI (SK-MEL-2 melanoma): 77.2 nM
GI50 (OVCAR-4 ovarian): 57.2 nM
TGI (OVCAR-4 ovarian): 215 nM
GI50 (SF-268 CNS): 133 nM
TGI (SF-268 CNS): 400 nM
GI50 (UO-31 renal): 103 nM
TGI (UO-31 renal): 270 nM
GI50 (786-0 renal): 116 nM
TGI (786-0 renal): 252 nM
GI50 (NCI-H522 lung): 14.8 nM
TGI (NCI-H522 lung): 52 nM
GI50 (UACC-62 melanoma): 24.9 nM
TGI (UACC-62 melanoma): 80.7 nM
GI50 (UACC-257 melanoma): 20.1 nM
TGI (UACC-257 melanoma): 56.6 nM
GI50 (MDA-MB-435 melanoma): 67.3 nM
TGI (MDA-MB-435 melanoma): 236 nM
GI50 (SK-MEL-28 melanoma): 51.9 nM
TGI (SK-MEL-28 melanoma): 184 nM
GI50 (HOP-62 NSCLC): 27.5 nM
TGI (HOP-62 NSCLC): 122 nM
GI50 (NCI-H23 lung): 19.7 nM
TGI (NCI-H23 lung): 46.9 nM
GI50 (RPMI-8226 leukemia): 40.5 nM
TGI (RPMI-8226 leukemia): 95.8 nM
GI50 (HCC-2998 colon): 41.1 nM
TGI (HCC-2998 colon): 196 nM
GI50 (NCI-H322M lung): 82.2 nM
TGI (NCI-H322M lung): 815 nM
GI50 (CCRF-CEM leukemia): 21.1 nM
TGI (CCRF-CEM leukemia): 41.9 nM
GI50 (MOLT-4 leukemia): 18.5 nM
TGI (MOLT-4 leukemia): 33.4 nM
GI50 (LOX IMVI melanoma): 58.3 nM
TGI (LOX IMVI melanoma): 161 nM
GI50 (TK-10 renal): 44.7 nM
TGI (TK-10 renal): 261 nM
GI50 (SNB-19 CNS): 37.1 nM
TGI (SNB-19 CNS): > 100000 nM
GI50 (A498 renal): 42.6 nM
TGI (A498 renal): 187 nM
GI50 (SF-295 CNS): 110 nM
TGI (SF-295 CNS): 307 nM
GI50 (MDA-MB-468 breast): 17.6 nM
TGI (MDA-MB-468 breast): 43.4 nM
GI50 (SF-539 CNS): 126 nM
TGI (SF-539 CNS): 286 nM
GI50 (MDA-MB-231 breast): 77.9 nM
TGI (MDA-MB-231 breast): 415 nM
GI50 (HT29 colon): 142 nM
TGI (HT29 colon): 284 nM
GI50 (RXF 393 renal): 56 nM
TGI (RXF 393 renal): 188 nM
GI50 (BT-549 breast): 16.9 nM
TGI (BT-549 breast): 49.9 nM
GI50 (U251 glioblastoma): 43.2 nM
TGI (U251 glioblastoma): 338 nM
GI50 (HCT-15 colon): 33 nM
TGI (HCT-15 colon): 147 nM

Cc1cccc2c1NC(=O)[C@@H](NC(=O)[C@H](CCC(F)(F)F)[C@H](CCC(F)(F)F)C(N)=O)N=C2c1cccc(F)c1
GI50 (IGROV1 ovarian): 34100 nM
TGI (IGROV1 ovarian): > 100000 nM
GI50 (KM12 colon): > 100000 nM
TGI (KM12 colon): > 100000 nM
GI50 (NCI/ADR-RES ovarian): 56300 nM
TGI (NCI/ADR-RES ovarian): > 100000 nM
GI50 (OVCAR-3 ovarian): 20000 nM
TGI (OVCAR-3 ovarian): > 100000 nM
GI50 (OVCAR-8 ovarian): 21500 nM
TGI (OVCAR-8 ovarian): 62500 nM
GI50 (M14 melanoma): 19700 nM
TGI (M14 melanoma): > 100000 nM
GI50 (HOP-92 NSCLC): 16200 nM
TGI (HOP-92 NSCLC): 49600 nM
GI50 (COLO 205 colon): 37500 nM
TGI (COLO 205 colon): > 100000 nM
GI50 (OVCAR-5 ovarian): 37700 nM
TGI (OVCAR-5 ovarian): > 100000 nM
GI50 (T-47D breast): 25200 nM
TGI (T-47D breast): > 100000 nM
GI50 (SK-MEL-5 melanoma): 25300 nM
TGI (SK-MEL-5 melanoma): > 100000 nM
GI50 (SK-OV-3 ovarian): 19300 nM
TGI (SK-OV-3 ovarian): 46800 nM
GI50 (HL-60(TB) leukemia): 1610 nM
TGI (HL-60(TB) leukemia): 3050 nM
GI50 (HCT-116 colon): 20100 nM
TGI (HCT-116 colon): > 100000 nM
GI50 (SR leukemia): 1250 nM
TGI (SR leukemia): 2540 nM
GI50 (NCI-H460 NSCLC): 4080 nM
TGI (NCI-H460 NSCLC): > 100000 nM
GI50 (NCI-H226 lung): 17700 nM
TGI (NCI-H226 lung): 75100 nM
GI50 (MALME-3M melanoma): 19200 nM
TGI (MALME-3M melanoma): 69700 nM
GI50 (MCF7 breast): 12000 nM
TGI (MCF7 breast): > 100000 nM
GI50 (PC-3 prostate): > 100000 nM
TGI (PC-3 prostate): > 100000 nM
GI50 (SN12C renal): 70100 nM
TGI (SN12C renal): > 100000 nM
GI50 (SK-MEL-2 melanoma): 16900 nM
TGI (SK-MEL-2 melanoma): 58500 nM
GI50 (OVCAR-4 ovarian): 18000 nM
TGI (OVCAR-4 ovarian): 40800 nM
GI50 (SF-268 CNS): 17000 nM
TGI (SF-268 CNS): 41300 nM
GI50 (UO-31 renal): 25600 nM
TGI (UO-31 renal): 69500 nM
GI50 (786-0 renal): 22200 nM
TGI (786-0 renal): > 100000 nM
GI50 (NCI-H522 lung): 8010 nM
TGI (NCI-H522 lung): 26100 nM
GI50 (UACC-62 melanoma): 14900 nM
TGI (UACC-62 melanoma): > 100000 nM
GI50 (UACC-257 melanoma): 16300 nM
TGI (UACC-257 melanoma): 55000 nM
GI50 (MDA-MB-435 melanoma): > 100000 nM
TGI (MDA-MB-435 melanoma): > 100000 nM
GI50 (A549 NSCLC): 31600 nM
TGI (A549 NSCLC): > 100000 nM
GI50 (SK-MEL-28 melanoma): 22500 nM
TGI (SK-MEL-28 melanoma): 68000 nM
GI50 (HOP-62 NSCLC): 20400 nM
TGI (HOP-62 NSCLC): 49600 nM
GI50 (DU-145 prostate): 24600 nM
TGI (DU-145 prostate): > 100000 nM
GI50 (NCI-H23 lung): 26800 nM
TGI (NCI-H23 lung): 82000 nM
GI50 (RPMI-8226 leukemia): 5270 nM
TGI (RPMI-8226 leukemia): > 100000 nM
GI50 (HCC-2998 colon): 25900 nM
TGI (HCC-2998 colon): > 100000 nM
GI50 (CAKI-1 renal): 13300 nM
TGI (CAKI-1 renal): 26800 nM
GI50 (NCI-H322M lung): 46800 nM
TGI (NCI-H322M lung): > 100000 nM
GI50 (LOX IMVI melanoma): > 100000 nM
TGI (LOX IMVI melanoma): > 100000 nM
GI50 (TK-10 renal): 38400 nM
TGI (TK-10 renal): > 100000 nM
GI50 (SNB-19 CNS): 37700 nM
TGI (SNB-19 CNS): > 100000 nM
GI50 (ACHN renal): 17900 nM
TGI (ACHN renal): 64500 nM
GI50 (A498 renal): 7760 nM
TGI (A498 renal): 51600 nM
GI50 (SF-295 CNS): 24300 nM
TGI (SF-295 CNS): 60000 nM
GI50 (MDA-MB-468 breast): 13900 nM
TGI (MDA-MB-468 breast): 92000 nM
GI50 (SF-539 CNS): 16300 nM
TGI (SF-539 CNS): 34100 nM
GI50 (MDA-MB-231 breast): 15700 nM
TGI (MDA-MB-231 breast): 92600 nM
GI50 (HT29 colon): > 100000 nM
TGI (HT29 colon): > 100000 nM
GI50 (RXF 393 renal): 5720 nM
TGI (RXF 393 renal): 22900 nM
GI50 (BT-549 breast): 14700 nM
TGI (BT-549 breast): 48300 nM
GI50 (U251 glioblastoma): 13700 nM
TGI (U251 glioblastoma): 72900 nM
GI50 (HCT-15 colon): > 100000 nM
TGI (HCT-15 colon): > 100000 nM
